Consider 19 molecules from patent publication US10323027B2, “2,3-dihydro-4H-1,3-benzoxazin-4-one derivatives as modulators of cholinergic muscarinic M1 receptor” (Takeda Pharmaceutical Company Limited, priority 2015, dated 2019).

The target in this test is T1, human M1 receptor (hCHRM1) (Homo sapiens, UniProt P11229).
T1 construct: expressed in transfected cells
T1 sequence (P11229 1-460): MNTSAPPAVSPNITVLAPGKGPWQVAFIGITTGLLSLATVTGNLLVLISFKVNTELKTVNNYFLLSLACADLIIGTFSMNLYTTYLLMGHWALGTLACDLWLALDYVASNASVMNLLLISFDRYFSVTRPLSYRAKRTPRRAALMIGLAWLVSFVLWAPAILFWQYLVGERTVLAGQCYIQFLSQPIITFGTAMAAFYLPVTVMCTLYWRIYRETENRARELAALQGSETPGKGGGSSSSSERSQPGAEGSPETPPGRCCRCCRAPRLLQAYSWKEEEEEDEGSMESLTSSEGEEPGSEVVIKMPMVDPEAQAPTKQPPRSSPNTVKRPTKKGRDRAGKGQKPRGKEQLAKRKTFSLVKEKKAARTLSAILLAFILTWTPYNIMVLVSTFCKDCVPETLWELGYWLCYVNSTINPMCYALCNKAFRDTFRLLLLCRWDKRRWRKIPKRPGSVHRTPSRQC
The test can be described thus: Measurement of M1 receptor positive allosteric modulator (M1PAM) activity, Ca2+ fluorescence by FLIPRtetra (Experimental Example 1). The settings on record: for activity (%) at 10 μM: 10 μM test compound, 100% = acetylcholine 1 μM, 0% = DMSO; for EC50: inflection point of concentration-dependent curve, in presence of acetylcholine at EC20 (0.8-1.0 nM), CHO-K1 cells expressing hCHRM1, read-out: IP value. The test is classed as cell-based. The method, boiled down:
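CHO-K1 cells stably expressing hCHRM1, loaded with Fluo-4 AM (probenecid), received compound with acetylcholine at EC20 (final 0.8-1.0 nM); Ca2+ fluorescence read 1 min by FLIPRtetra. Activity scaled 0% (DMSO) to 100% (1 μM acetylcholine); IP from inflection point of concentration curve.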

Counter-ions that a name gives are not always drawn.

With `COc1c(Cc2ccc(-c3cnn(C)c3)nc2)cc2c(c1F)OCN(CC1CCCO1)C2=O` (centres unmarked) [Example 74, 8-fluoro-7-methoxy-6-((6-(1-methyl-1H-pyrazol-4-yl)pyridin-3-yl)methyl)-3-(tetrahydrofuran-2-ylmethyl)-2,3-dihydro-4H-1,3-benzoxazin-4-one], the “activity (%) at 10 μM” value came out at 104% and the EC50 came to 59 nM.

Consider `O=C1c2cc(CN3CCC(F)(F)C3)c3ccccc3c2OCN1[C@H]1CCC[C@@H]1O` [Example 69, 6-((3,3-difluoropyrrolidin-1-yl)methyl)-3-((1S,2S)-2-hydroxycyclopentyl)-2,3-dihydro-4H-naphtho[2,1-e][1,3]oxazin-4-one], for which the “activity (%) at 10 μM” value stood at 93% and the EC50 was determined as 51 nM.

Consider `Cn1cc(-c2ccc(Cc3cc4c(c5ccccc35)OCNC4=O)cn2)cn1` [Example 47, 6-((6-(1-methyl-1H-pyrazol-4-yl)pyridin-3-yl)methyl)-2,3-dihydro-4H-naphtho[2,1-e][1,3]oxazin-4-one], for which the “activity (%) at 10 μM” value came to 110% and the EC50 came to 5.3 nM.

With `Cn1cc(-c2ccc(Cc3ccc4c(c3)C(=O)N(c3ccccc3F)CO4)cn2)cn1` [Example 88, 3-(2-fluorophenyl)-6-((6-(1-methyl-1H-pyrazol-4-yl)pyridin-3-yl)methyl)-2,3-dihydro-4H-1,3-benzoxazin-4-one], the “activity (%) at 10 μM” value is reported as 115% and the EC50 was determined as 230 nM.

On to `Cc1ccc(Cc2cc3c(c(C)c2C)OCN([C@H]2CCC[C@@H]2O)C3=O)cn1` [Example 26, 3-((1S,2S)-2-hydroxycyclopentyl)-7,8-dimethyl-6-((6-methylpyridin-3-yl)methyl)-2,3-dihydro-4H-1,3-benzoxazin-4-one monohydrochloride], for which the EC50 amounted to 5.4 nM. Moreover, under “monohydrochloride”, the “activity (%) at 10 μM” value amounted to 119%.

Take `Cc1c(Cc2ccc(-n3cccn3)cc2)cc2c(c1F)OCN([C@H]1CCC[C@@H]1O)C2=O` [Example 5, 8-fluoro-3-((1S,2S)-2-hydroxycyclopentyl)-7-methyl-6-(4-(1H-pyrazol-1-yl)benzyl)-2,3-dihydro-4H-1,3-benzoxazin-4-one]: the “activity (%) at 10 μM” value came to 104% and the EC50 amounted to 8.5 nM.

Consider `O=C1c2cc(CN3CCC(F)(F)CC3)c3ccccc3c2OCN1[C@H]1CCC[C@@H]1O` [Example 21, 6-((4,4-difluoropiperidin-1-yl)methyl)-3-((1S,2S)-2-hydroxycyclopentyl)-2,3-dihydro-4H-naphtho[2,1-e][1,3]oxazin-4-one], for which the “activity (%) at 10 μM” value was 95% and the EC50 was 16 nM.

On to `Cc1ccc(Cc2cc3c(c(Cl)c2C)OCN([C@H]2CCCC[C@@H]2O)C3=O)cn1` [Example 2, 8-chloro-3-((1S,2S)-2-hydroxycyclohexyl)-7-methyl-6-((6-methylpyridin-3-yl)methyl)-2,3-dihydro-4H-1,3-benzoxazin-4-one], for which the “activity (%) at 10 μM” value is recorded as 106% and the EC50 was 2.5 nM.

As for `Cc1ccc(Cc2cc3c(c(F)c2C)OCN([C@H]2CCCC[C@@H]2O)C3=O)cn1` [Example 27, 8-fluoro-3-((1S,2S)-2-hydroxycyclohexyl)-7-methyl-6-((6-methylpyridin-3-yl)methyl)-2,3-dihydro-4H-1,3-benzoxazin-4-one], the “activity (%) at 10 μM” value was found to be 105% and the EC50 came out at 6 nM.

As to `Cc1cc2c(cc1Cc1ccc(-c3cn(C)nn3)cc1)C(=O)N(CC1CCCO1)CO2` (centres unmarked) [Example 61, 7-methyl-6-(4-(1-methyl-1H-1,2,3-triazol-4-yl)benzyl)-3-(tetrahydrofuran-2-ylmethyl)-2,3-dihydro-4H-1,3-benzoxazin-4-one], the “activity (%) at 10 μM” value turned out to be 92% and the EC50 is 23 nM.

Turning to `Cc1ccc(Cc2cc3c(c(F)c2C)OCN([C@H]2COCC[C@@H]2O)C3=O)cn1` [Example 32, 1,5-anhydro-2,4-dideoxy-2-(8-fluoro-7-methyl-6-((6-methylpyridin-3-yl)methyl)-4-oxo-2H-1,3-benzoxazin-3(4H)-yl)-L-threo-pentitol], the “activity (%) at 10 μM” value is reported as 108% and the EC50 was determined as 37 nM.

Consider `Cc1c(Cc2ccc(-n3cccn3)cc2)cc2c(c1C)OCN([C@H]1COCC[C@@H]1O)C2=O` [Example 23, 3-[(3S,4S)-4-hydroxytetrahydro-2H-pyran-3-yl]-7,8-dimethyl-6-[4-(1H-pyrazol-1-yl)benzyl]-2,3-dihydro-4H-1,3-benzoxazin-4-one], for which the “activity (%) at 10 μM” value was found to be 114% and the EC50 was 2 nM.

Turning to `COc1ccc(Cc2cc3c(c(F)c2C)OCN([C@H]2CCC[C@@H]2O)C3=O)cn1` [Example 18, 8-fluoro-3-((1S,2S)-2-hydroxycyclopentyl)-6-((6-methoxypyridin-3-yl)methyl)-7-methyl-2,3-dihydro-4H-1,3-benzoxazin-4-one], the “activity (%) at 10 μM” value is listed as 107% and the EC50 amounted to 37 nM.

Turning to `Cc1c(Cc2ccc(Cl)nc2)cc2c(c1Cl)OCN(CC1CCCO1)C2=O` (centres unmarked) [Example 87, 8-chloro-6-((6-chloropyridin-3-yl)methyl)-7-methyl-3-(tetrahydrofuran-2-ylmethyl)-2,3-dihydro-4H-1,3-benzoxazin-4-one], the “activity (%) at 10 μM” value was 93% and the EC50 was found to be 160 nM.

As for `O=C1c2cc(Cc3ccc(Cl)nc3)c3ccccc3c2OCN1[C@H]1COCC[C@@H]1O` [Example 4, 1,5-anhydro-2-(6-((6-chloropyridin-3-yl)methyl)-4-oxo-2H-naphtho[2,1-e][1,3]oxazin-3(4H)-yl)-2,4-dideoxy-L-threo-pentitol], the “activity (%) at 10 μM” value worked out at 109% and the EC50 is 3.2 nM.

As to `Cc1cc2c(cc1Cc1ccc(-n3cccn3)cc1)C(=O)N([C@H]1CCCC[C@@H]1O)CO2` (relative stereo) [Example 52, 3-(trans-2-hydroxycyclohexyl)-7-methyl-6-(4-(1H-pyrazol-1-yl)benzyl)-2,3-dihydro-4H-1,3-benzoxazin-4-one], the “activity (%) at 10 μM” value amounted to 101% and the EC50 worked out at 11 nM.

For `Cc1c(Cc2ccc(-n3cccn3)cc2)cc2c(c1F)OCN([C@H]1COCC[C@@H]1O)C2=O` [Example 1, 8-fluoro-3-((3S,4S)-4-hydroxytetrahydro-2H-pyran-3-yl)-7-methyl-6-(4-(1H-pyrazol-1-yl)benzyl)-2,3-dihydro-4H-1,3-benzoxazin-4-one], the “activity (%) at 10 μM” value was determined as 96% and the EC50 came out at 1.8 nM.

With `Cc1c(Cc2ccc(C#N)cc2)cc2c(c1F)OCN([C@H]1CCC[C@@H]1O)C2=O` [Example 12, 4-((8-fluoro-3-((1S,2S)-2-hydroxycyclopentyl)-7-methyl-4-oxo-3,4-dihydro-2H-1,3-benzoxazin-6-yl)methyl)benzonitrile], the “activity (%) at 10 μM” value is reported as 89% and the EC50 came out at 15 nM.

`O=C1c2cc(CN3CCOCC3)c3ccccc3c2OCN1[C@H]1CCC[C@@H]1O` [Example 77, 3-((1S,2S)-2-hydroxycyclopentyl)-6-(morpholin-4-ylmethyl)-2,3-dihydro-4H-naphtho[2,1-e][1,3]oxazin-4-one]: the “activity (%) at 10 μM” value was 104% and the EC50 is 63 nM.
